Publication PMC12257413, “Discovery of a Novel sp^3‑Rich M1 Positive Allosteric Modulators (PAMs) Chemotype via Scaffold Hopping” (ACS Medicinal Chemistry Letters, 2025)

Key:
[1] = target: T1, human muscarinic receptor subtype 1 (M1) (Homo sapiens, UniProt P11229); assay: Calcium mobilization assay in hM1-CHO cells, PAM activity with EC20 acetylcholine; assay type: cell-based; settings: for EC50: read-out: hM1 pEC50 ± SEM (converted)
T1 sequence (P11229 1-460): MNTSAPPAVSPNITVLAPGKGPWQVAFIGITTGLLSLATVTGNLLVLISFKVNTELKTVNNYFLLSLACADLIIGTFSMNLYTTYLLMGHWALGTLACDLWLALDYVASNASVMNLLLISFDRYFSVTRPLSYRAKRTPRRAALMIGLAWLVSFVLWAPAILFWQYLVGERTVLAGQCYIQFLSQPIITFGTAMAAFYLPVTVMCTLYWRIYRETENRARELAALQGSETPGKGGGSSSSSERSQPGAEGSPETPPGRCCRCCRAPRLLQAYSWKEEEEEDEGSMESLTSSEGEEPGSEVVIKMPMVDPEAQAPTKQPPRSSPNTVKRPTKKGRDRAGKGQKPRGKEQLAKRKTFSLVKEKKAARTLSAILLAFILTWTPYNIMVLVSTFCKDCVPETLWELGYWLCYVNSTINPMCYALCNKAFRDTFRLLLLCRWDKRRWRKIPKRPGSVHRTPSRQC
Experimental: page 2: Procedures for Biological Experiments Calcium mobilization assays: To measure the functional activity of positive allosteric modulator (PAM) compounds in a cellular assay, human or rat muscarinic receptor subtype 1 (M1) was stably expressed in the Chinese hamster ovary (CHO) cells to evoke an increase in intracellular calcium to an EC20 concentration of acetylcholine (ACh) agonist. The stable M1-CHO cells were cultured in F12 medium containing 10% fetal bovine serum, 20 mM HEPES, 100 units/mL antibiotics/antimycotic, 0.5 mg/ml G418. All reagents used were from Life Technologies (Carlsbad, CA) unless otherwise noted. Briefly, the day before the assay, stable M1-CHO cells (15,000 cells/20 μL/well) were plated in black-walled, clear-bottomed, 384 well plates (Greiner Bio-One, Monroe, NC) in the culture medium without G418, and then incubated overnight at 37 °C in the presence of 5% CO2. The next day, calcium assay buffer (Hank’s balanced salt solution (HBSS), 20 mM HEPES, 2.5 mM Probenecid, 4.16 mM sodium bicarbonate (Sigma-Aldrich, St. Louis, MO) was prepared to dilute […] calcium indicator dye. […] curves in DMSO using the Bravo Liquid Handler (Agilent, Santa Clara, CA), transferred to a 384 well daughter plates using an Echo acoustic liquid handler (Beckman Coulter, Indianapolis, Indiana), and diluted in assay Buffer to a 2X final concentration. The agonist plates were prepared using acetylcholine (ACh, Sigma-Aldrich, St. Louis, MO) concentrations for the EC20 and ECMAX responses by diluting in assay buffer to a 5X final concentration. The 2X dye solution (2.3 µM) was prepared by mixing a 2.3 mM Fluo-4-AM stock in DMSO with 10% (w/v) pluronic acid F- 127 in a 1:1 ratio in assay buffer. Using a microplate washer (BioTek, Winooski, VT), cells were washed with assay buffer for 3 times to remove medium. After the final wash, 20 μL of assay buffer remained in the cell plates. Immediately, 20 μL of the 2X dye solution (final 1.15 µM) was added to each well of the cell plate using a Multidrop Combi dispenser (Thermo Fisher, Waltham, MA). After cells were incubated with the dye solutions for 45 min at 37 °C in the presence of 5% CO2, the dye solutions were removed and replaced with assay buffer using a microplate washer, leaving 20 μL of assay buffer in the cell plate. The compound, agonist, and cell plates were placed inside the Functional Drug Screening System uCell (FDSS uCell, Hamamatsu, Japan) to measure the calcium flux. The triple add protocol was used to measure Ca kinetics; Compound, ACh for EC20, and ACh for ECMAX adds in an order. Briefly, after establishment of a fluorescence baseline S2 page 3: for 2 seconds (excitation, 480 nm; emission, 530 nm), first add occurred by adding 20 µL of test compound to the cells, and the response was measured for 140 seconds. This is followed by second add; 10 µL (5X) of an EC20 concentration of ACh agonist was added to the cells, and the response of the cells was measured for 125 seconds. Immediately, the third add occurred by adding 12 ul assay buffer or 5X of an EC max concentration of ACh and the response of the cells was measured for 90 seconds. Assay buffer was added to the wells that incubated with compounds followed by EC20 concentration of ACh. Agonists containing ECmax concentration of ACh were added to the wells that incubated with DMSO and assay buffer from the 1st and 2nd adds to measure maximum Ca responses (ECmax). Calcium fluorescence was recorded as fold over basal fluorescence and raw data were normalized to the maximal response to ACh agonist. […]

[2] = Brain homogenate binding by equilibrium dialysis; assay type: in vitro ADME; settings: fraction unbound in rat brain homogenate
Experimental: A similar approach was used to determine the degree of brain homogenate binding, which employed the same methodology and procedure with the following modifications: 1) a final compound concentration of 1 μM was used, 2) naïve rat brains were homogenized in DPBS (1:3 composition of brain: DPBS, w/w) using a Mini-Bead Beater™ machine in order to obtain brain homogenate, which was then treated in the same manner as the plasma samples in the previously described plasma protein binding assay. […]
same manner as the plasma samples in the previously described plasma protein binding assay. Fraction unbound for both plasma and brain samples was determined using Equation 4.
Equation 4 Determination of fraction unbound in plasma.
The diluted fraction unbound (fu2) in brain was calculated in the same manner by using brain homogenate rather than plasma. Undiluted fraction unbound for the brain was calculated using Equation 5 […]
Equation 5 Determination of fraction unbound in brain. […]
Human or rat hepatic microsomes (0.5 mg/mL) and 1 µM test compound were incubated in 100 mM potassium phosphate pH 7.4 buffer with 3 mM MgCl 2 at 37 °C with constant shaking. […] The in vitro half-life (1/2, min, Eq. 1), intrinsic clearance (CL int, mL/min/kg, Eq. 2), and subsequent predicted hepatic clearance (CLhep, mL/min/kg, Eq. 3) was determined employing the following equations: […]

Row | Structure (SMILES) | hM1 %ACh Max ± SEM [1] [%ACh Max] | EC50 [1] [nM] | Rat fubrain [2]
1 | Cn1cc(-c2ccc(Cc3cc(C(=O)N[C@H]4CCOC[C@@H]4O)nn3C3CCCC3)cc2)cn1 [17g] | 82 ± 3.4 | 427 | 0.08
2 | Cn1cc(-c2ccc(Cc3cc(C(=O)N[C@H]4CCCC[C@@H]4O)nn3C3CCCC3)cc2)cn1 [17k] | 82 ± 4.4 | 589 | 0.01
